# Measured values published in patent publication US20250388542A1, “ANALOGUES OF PENTAMIDINE AND USES THEREFOR” (Auransa Inc., priority 2018, published 2025).
# Several values for one entry are separate records, joined by “and”; a condition that tells them apart may be missing. Identical values can stand only once. Entries after “also recorded” stand apart in the source; their conditions may differ.
# What was measured:
# Hep3B-luc = test: CellTiter-Glo cell viability, liver cell lines, 8 days; type: cell-based; details: Hep 3B-Luc, 192 h, full growth media
# Protocol: The objective of this study is to investigate the effect of Compound 1 on cell viability of various types of liver cancer. Ten (10) different liver cancer cell lines were employed in the study. Each liver cell line shown in Table 4 was treated with Compound 1, pentamidine, as reference control, a standard of care (cisplatin) and culture medium contains 0.2% [v/v] DMSO vehicle control and IC50 values were obtained as described above. The raw data values from the CellTiter-Glo™ cell viability assay expressed in relative luminescence units were normalized to the vehicle for each individual plate, and any reduction in luminescence indicated a decrease in viability (%). The data was analyzed in GraphPad PRISM using a non-linear sigmoidal plot with variable slope (asymmetric four-point linear regression), and an IC50 value for each compound was generated. The experiment tested pentamidine, compound 1, and standard-of-care control Cisplatin in full growth media for 8 days. Cells were initially treated with the test compounds on Day 0, and the cells were then replenished with fresh compound dilutions on Day 3. Pentamidine, Compound 1, and cisplatin were tested at 9 concentration points; 100, 33.33, 11.11, 3.70, 1.23, 0.41, 0.14, 0.05, and 0.02 μM (final DMSO concentration=0.5%). In particular, the IC50 values of pentamidine and Compound 1 were 0.8 and 0.6 μM in Hep3B-luc, respectively.
# The experiment tested pentamidine, Compound 1, and standard of care control, cisplatin, in full growth media for 8 days. Hep-3b cells were initially treated with the test compounds on Day 0, and the cells were then replenished with fresh compound dilutions on Day 3. […] The raw data values from the CellTiter-Glo™ cell viability assay expressed in relative luminescence units were normalized to the vehicle for each individual plate, and any reduction in luminescence indicated a decrease in viability (%). The data was analyzed in GraphPad PRISM using a non-linear sigmoidal plot with variable slope (asymmetric four-point linear regression), and an IC50 value for each compound was generated. […]
# [1] = system: Hep3B2.1-7-Luc liver orthotopic model; test: Liver orthotopic in vivo analysis; details: for mean Total Flux: Q3D for a week then QD three weeks, day 28 post grouping; for Whole liver (with tumor) weights: individual animals 1-8; for Tumor sizes vs vehicle: nonparametric ANOVA followed by Kruskal-Wallis test; for Tumor sizes (signal intensity) vs vehicle: two-way ANOVA and Bonferroni post-test
# Protocol: In this study, the in vivo therapeutic effect of Compound 1 on liver cancer was evaluated in an orthotopic mouse model using Hep3B2.1-7-Luc cell line. Three groups of orthotopic model in BALB/c nude mice were treated with vehicle, Compound 1 at 10 mg/kg, and Compound 1 at 20 mg/kg orally (p.o.) Q3D for a week followed by QD for three weeks. The mean Total Flux (photons/s/10^6) of the mice in vehicle control group reached 1223.01 photons/s/10^6 at day 28 post grouping. The mean Total Flux (photons/s/10^6) was 464.74 and 306.74 for Compound 1 (10 mg/kg) group and Compound 1 (20 mg/kg) group at day 28 post grouping.
# A One-way ANOVA combined with Dunnett post-test was performed to compare the results of serum-derived blood chemistries (including ALT, AST, ALP, TP, ALB, UA, UREA, Glu, TC, TG, Ca, Mg, P, CK, LDH, GLB, A/G and CREA) among vehicle and treatment groups. A nonparametric ANOVA followed by Kruskal-Wallis test was performed to compare serum-derived blood chemistries (including ALT, AST and ALP) among vehicle and treatment groups.
# [2] = system: COLO 205-Luc colon cancer tumor cells; details: mouse, in vivo
# Protocol: Approximately 2.0× Luciferase stably expressing colon cancer tumor cells (COLO 205-Luc) cells suspended in 30 μl of DPBS were injected into cecum wall of BALB/c nude mice.
# The animals were assigned into groups using an Excel-based randomization software performing stratified randomization based upon their bioluminescence intensity. Treatment was initiated according to the predetermined regimen as shown in the experimental design table.
# Mice were administered compound 1 at 10 mg/k daily, 20 mg/kg daily, 10 mg/kg twice daily, 20 mg/kg twice daily, or 40 mg/kg daily.
# The major efficacy endpoint was bioluminescence (intensity values and change from baseline). The surgically inoculated mice were weighed and intraperitoneally administered luciferin at a dose of 150 mg/kg. Ten minutes after the luciferin injection, the animals were pre-anesthetized with the mixture gas of oxygen and isoflurane. When the animals were in a complete anesthetic state, the mice were moved into the imaging chamber for bioluminescence measurements with an IVIS (Lumina II) imaging system. The bioluminescence of the whole animal body, including primary and metastatic tumors, was measured and recorded once per week.
# Tumor Growth Inhibition (TGI) was calculated for each group using the formula: TGI (%)=[1−(Ti−T0)/(Vi−V0)]×100; Ti is the average tumor bioluminescence value of a treatment group on a given day, T0 is the average tumor bioluminescence value of the treatment group on day 0, Vi is the average tumor bioluminescence value of the vehicle control group on the same day with Ti, and V0 is the average tumor bioluminescence value of the vehicle group on day 0.
# For comparison among three or more groups, a one-way ANOVA was performed. When a non-significant F-statistics (a ratio of treatment variance to the error variance) was obtained, comparisons between groups were carried out with Dunnett t(2-sided). All data were analyzed using SPSS 17.0. p<0.05 is considered to be statistically significant.
smiles,measurement,setting,value
"N=C(N)c1ccc(OCCCCCOc2ccc(C(=N)N)nc2)cc1 [Compound 1, 5-(5-(4-carbamimidoylphenoxy)pentyloxy)picolinimidamide]",IC50,Hep3B-luc,600 nM
same,"tolerability, body weight loss",[1]; 10 mg/kg and 20 mg/kg p.o.,well tolerated in both 10 mg/kg and 20 mg/kg groups with no obvious body weight loss; also recorded: well tolerated at both doses level tested
same,anti-tumor effect compared to vehicle group (Total Flux),[1]; 10 mg/kg p.o.,significant anti-tumor effect at day 8 to day 18 and day 28
same,mean Total Flux,[1]; 10 mg/kg p.o.,464.74 photons/s/10^6
same,Whole liver (with tumor) weights,[1]; 10 mg/kg,1.334 g and 2.415 g and 2.602 g and 2.280 g and 3.035 g and 1.817 g and 2.019 g and 2.311 g
same,Tumor sizes vs vehicle,[1]; 10 mg/kg,no significant difference during the treatment days
same,Tumor sizes (signal intensity) vs vehicle,[1]; 10 mg/kg,significant difference at day 25 and extremely significant difference at day 28
same,anti-tumor effect compared to vehicle group (Total Flux),[1]; 20 mg/kg p.o.,significant anti-tumor effect at day 8 to day 28
same,mean Total Flux,[1]; 20 mg/kg p.o.,306.74 photons/s/10^6
same,in vivo anti-tumor activity (summary),"[1]; 20 mg/kg, day 25 and day 28",significant in vivo anti-tumor activity
same,Whole liver (with tumor) weights,[1]; 20 mg/kg,1.681 g and 2.243 g and 1.645 g and 2.012 g and 1.926 g and 1.610 g and 1.603 g and 2.260 g
same,Tumor sizes vs vehicle,[1]; 20 mg/kg,significant difference at day 28 and extremely significant difference at day 25
same,Tumor sizes (signal intensity) vs vehicle,[1]; 20 mg/kg,extremely significant difference at day 22 to day 28
same,levels of liver injury/damage markers ALT and AST,"[1]; serum, 10 mg/kg and 20 mg/kg","significant reduction in levels of liver injury/damage markers, i.e., ALT and AST, in a dose dependent manner"
same,deaths and morbidity,[2],no deaths and no morbidity
